The assay has as its system 3T3-L1 adipocytes. The assay can be described thus: myc-GLUT4-GFP translocation to the cell surface. Format: cell-based, mouse. As to conditions: insulin 1 nM, 20 min. The method, then: FIG. 2, panels A-C show knockdown of CDP138 in 3T3-L1 adipocytes inhibits insulin-stimulated glucose transport (A) and myc-GLUT4-GFP translocation (B), but not endogenous GLUT4 movement to the periphery detected in TIRF zone (C). (A): Differentiated adipocytes at day 5 were transfected with siRNAs against mouse 5730419I09Rik or the scrambled siRNA (Scr) as described earlier (Jiang et al., 2003) for 60 hrs, then serum starved overnight. Cells were then treated with or without insulin (1 nM and 100 nM) for 30 min for the glucose uptake assay, or 15 min for immunoblotting of CDP138, pAkt, Akt and β-actin. Glucose transport data are presented as mean±SD of 4 independent experiments. *P<0.05 vs Scr Insulin (1 nM) group; **P<0.01 vs Scr Insulin (100 nM) group. (B): Day 5 adipocytes were transfected with siRNAs and myc-GLUT4-GFP for 60 hrs and then serum starved overnight. Cells were then treated with insulin (1 nM) for 20 min. Cell surface Myc-GLUT4-GFP was detected with anti-myc monoclonal Ab (9E10) and Alexa Fluor 568-labeled goat anti-mouse IgG in non-permeablized cells. The Myc signal and GFP signal were quantified as previously described (Jiang et al., 2002). Data presented are representative microscopic images and mean±SD of about 160 GFP-positive cells in each group from three independent experiments. **P<0.01 vs Scr Insulin (1 nM) group. […] GLUT4 was detected with a goat anti-GLUT4 Ab and Alexa Fluor 488-conjugated donkey anti-goat Ab in permeabilized cells. Top and middle panels show 100 nm TIRF zone and representative GLUT4 TIRFM images, respectively. Data are mean±SD of 3 independent experiments. **P<0.01 vs Scr Insulin groups.
GLUT4 translocation detection with wide field fluorescence and TIRF microscopy: Both wide field and TIRF microscopy were used to detect myc-GLUT4-GFP translocation to the cell surface as previously described (Jiang et al., 2002) and herein.
To test the effect of RNAi-induced gene specific knockdown of CDP138 or overexpression of CDP138 mutants on GLUT4 translocation, siRNAs or CDP138 constructs were transfected into adipocytes together with myc-GLUT4-GFP by electroporation as previously described (Jiang et al, 2003). […] Cells were washed with cold PBS, fixed with 4% formaldehyde and immunostained. Briefly, for siRNA study, the cell surface Myc-GLUT4-GFP was visualized with mouse anti-Myc Ab (9E10) and AlexaFluoro568-labeled goat anti-mouse secondary Ab (Invitrogen) in PBS containing 1% FBS. After washing, the coverslip were mounted with Prolong antifade reagent (Invitrogen, Eugene Oreg.). Fluorescence microscopy was carried as described below. Then, images were acquired with wide field microscopy as described below. For the study with overexpressed HAtagged CDP138 constructs, the cell surface Myc-GLUT4-GFP was visualized with rabbit anti-Myc Ab (Cell signaling, Inc) and AlexaFluoro568-labeled goat anti-rabbit secondary Ab (InVitrogen) in PBS containing 1% FBS. Cells were further permeabilized with PSB containing 0.5% Tween-20, and HA-tagged protein was detected with a mouse anti-HA epitope primary Ab followed by AlexaFluoro-350-labelled goat anti-mouse IgG. Insulin-induced myc-GLUT4 accumulation (AlexaFluoro-568 signal) within the evanescence excitation field (100 nm from dorsal membrane) in transfected adipocytes was measured with a Nikon Eclipse-Ti microscope equipped with a CoolSNAP HQ2 camera and laser scanning TIRF capacity. Total GLUT4-GFP signals and […] Alexa Fluoro-350 signals were acquired with wide field imaging to identify double-transfected cells. The ratio of myc-GLUT4 signal in the TIRF zone to the total Epi-GFP signal in wide field was used as a measure of GLUT4 translocation to the cell surface.
Image Analysis and Quantification: TIRF and wide field fluorescence microscopy were performed using a Nikon inverted microscope (Melville, N.Y.) with a cooled charge-coupled device camera. […]

For the substance insulin, the “increase in GLUT4 translocation (cell surface myc / total GFP)” value was 3 fold.

The record behind these values is patent US20120204273A1, “COMPOSITIONS RELATING TO A PHOSPHOPROTEIN AND METHODS OF USE” (SANFORD-BURNHAM MEDICAL RESEARCH INSTITUTE, priority 2010, published 2012).
